Experimental findings from PubChem BioAssay (NCI) are described below.

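96-well plates; 48 h exposure; 5 concentrations. Endpoints by linear interpolation between flanking doses. Not reached: highest tested concentration assigned. GI50 is the concentration that inhibits growth by half. TGI marks complete inhibition of growth.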 Bounds are passed on as bounds.

Some test systems named below: BT-549 breast; MALME-3M melanoma; MCF7 breast; NCI-H23 lung; OVCAR-4 ovarian; OVCAR-8 ovarian; RPMI-8226 leukemia; SF-295 CNS; SK-MEL-5 melanoma; SR leukemia.
Assay in all cases: inhibition of tumour cell growth, NCI panel, 48 h

On to `CCc1ncnc2cc(OCC3CO3)c(OC)cc12` (stereo not given), for which the TGI in the experiment with BT-549 breast is 15.1 µM; in the experiment on MALME-3M melanoma, 42 µM; in the experiment with MCF7 breast, more than 42.7 µM; in the experiment on NCI-H23 lung, 16.2 µM; in the experiment on OVCAR-4 ovarian it was 24.7 µM; in the experiment on OVCAR-8 ovarian it was 14.3 µM. In addition, the results for the TGI with RPMI-8226 leukemia, with SF-295 CNS and with SK-MEL-5 melanoma were 5.38 µM, 30.3 µM and 21.9 µM, respectively.
As to `Cc1ccc(C)c2c(N=Nc3ccccc3[N+](=O)[O-])c(O)[nH]c12`, the TGI in the experiment on BT-549 breast, in the experiment on MCF7 breast, in the experiment with NCI-H23 lung, in the experiment with OVCAR-4 ovarian, in the experiment with RPMI-8226 leukemia and in the experiment on SF-295 CNS was more than 100 µM in each case. Further, the TGI in the experiment with SK-MEL-5 melanoma and with SR leukemia was more than 100 µM each time.
In the case of `Cc1cc2c(cc1C)[n+](Cc1ccc3ccccc3n1)cn2Cc1ccc2ccccc2n1`, the GI50 was 1.32 µM in the experiment on BT-549 breast; 0.783 µM with MALME-3M melanoma; 0.736 µM in the experiment on NCI-H23 lung; 1.24 µM in the experiment on OVCAR-4 ovarian; 0.301 µM in the experiment with RPMI-8226 leukemia; 1.12 µM with SF-295 CNS. For the same compound, the figures for the GI50 in the experiment on SK-MEL-5 melanoma and in the experiment on SR leukemia were 0.471 µM and 1.12 µM, respectively. For the same compound, the TGI in the experiment with BT-549 breast turned out to be 3.2 µM; in the experiment with MALME-3M melanoma it was 2.56 µM; with NCI-H23 lung, 3.53 µM; in the experiment on OVCAR-4 ovarian, 4.09 µM; in the experiment on RPMI-8226 leukemia it was 1.62 µM; with SF-295 CNS it was 2.63 µM. Moreover, the TGI with SK-MEL-5 melanoma came to 1.59 µM; with SR leukemia, 3.21 µM.
As for `CC(=O)/C(=C\c1c(-c2ccccc2)[nH]c2ccccc12)S(=O)(=O)c1ccccc1`, the GI50 in the experiment on BT-549 breast was 1.76 µM; with MALME-3M melanoma it was 1.98 µM; in the experiment with MCF7 breast it was 0.903 µM; with NCI-H23 lung, 1.48 µM; in the experiment on OVCAR-4 ovarian, 3.53 µM; with OVCAR-8 ovarian it was 2.51 µM. In addition, the GI50 in the experiment on RPMI-8226 leukemia is 2.23 µM; with SF-295 CNS it was 2.33 µM; with SK-MEL-5 melanoma, 0.78 µM. Moreover, the TGI in the experiment on BT-549 breast is 11 µM; with MALME-3M melanoma it was 9.19 µM; with MCF7 breast, 9.36 µM; with NCI-H23 lung, 5.52 µM; in the experiment on OVCAR-4 ovarian, more than 54.2 µM; in the experiment on OVCAR-8 ovarian, 9.89 µM. The TGI with RPMI-8226 leukemia came out at 7.14 µM; with SF-295 CNS, 10.2 µM; in the experiment on SK-MEL-5 melanoma, 2.21 µM.
With `CN(C)CCNc1nc2ccccc2c2occc12`, the GI50 in the experiment on BT-549 breast is more than 100 µM; in the experiment on MCF7 breast, 32.4 µM; in the experiment with NCI-H23 lung, 69.5 µM; with OVCAR-4 ovarian it was 26.3 µM; with OVCAR-8 ovarian, 62.3 µM; in the experiment on RPMI-8226 leukemia, 58 µM. The GI50 in the experiment with SF-295 CNS is 60.2 µM; with SK-MEL-5 melanoma, 14.5 µM; in the experiment with SR leukemia it was 21.3 µM. The TGI in the experiment with BT-549 breast is more than 100 µM; in the experiment with MCF7 breast it was more than 100 µM; in the experiment with NCI-H23 lung, more than 100 µM; in the experiment with OVCAR-4 ovarian, 82.2 µM; in the experiment with OVCAR-8 ovarian it was more than 100 µM; in the experiment with RPMI-8226 leukemia, more than 100 µM. The TGI in the experiment on SF-295 CNS is more than 100 µM; with SK-MEL-5 melanoma, 32.2 µM; with SR leukemia it was 54.4 µM.
On to `COc1ccc(-c2nnc(Nc3nc(O)c(C4=c5cc(F)ccc5=NC4=O)s3)o2)cc1`, for which the GI50 with BT-549 breast is 36.5 µM; in the experiment with MALME-3M melanoma, 34.5 µM; with MCF7 breast, 34.5 µM; in the experiment on NCI-H23 lung, 67.7 µM; with OVCAR-4 ovarian, 39.7 µM; with OVCAR-8 ovarian, 54.4 µM. Also, the GI50 in the experiment with RPMI-8226 leukemia is 59.1 µM; in the experiment with SF-295 CNS, 29.5 µM; in the experiment on SK-MEL-5 melanoma, 28.7 µM. Also, the TGI with BT-549 breast, in the experiment on MALME-3M melanoma, in the experiment on MCF7 breast, in the experiment with NCI-H23 lung, with OVCAR-4 ovarian and with OVCAR-8 ovarian was more than 100 µM each time. In addition, the TGI in the experiment with RPMI-8226 leukemia, with SF-295 CNS and in the experiment with SK-MEL-5 melanoma was more than 100 µM in each case.
As to `O=C(COc1ccc(-c2nc3cc(Cl)c(Cl)cc3[nH]2)cc1)N=Nc1c(O)[nH]c2ccccc12`, the GI50 in the experiment on BT-549 breast was 12.7 µM; in the experiment with NCI-H23 lung, 3.03 µM; with OVCAR-8 ovarian, 1.55 µM; with SF-295 CNS, 2.63 µM; in the experiment on SR leukemia it was 0.803 µM. Also, the TGI in the experiment on BT-549 breast is 59 µM; in the experiment with NCI-H23 lung, 15.1 µM; in the experiment with OVCAR-8 ovarian, more than 100 µM; in the experiment on SF-295 CNS it was 9.01 µM; in the experiment with SR leukemia it was 31.7 µM.
Regarding `O=S(=O)(NCCO)c1cc[c]([Sb](=[O])([OH])[OH])cc1`, the GI50 with BT-549 breast, in the experiment with MALME-3M melanoma, with NCI-H23 lung, in the experiment with OVCAR-4 ovarian, in the experiment with OVCAR-8 ovarian and with RPMI-8226 leukemia was more than 100 µM each time. In addition, the GI50 in the experiment with SF-295 CNS, with SK-MEL-5 melanoma and with SR leukemia was more than 100 µM each time. The TGI in the experiment with BT-549 breast, with MALME-3M melanoma, in the experiment with NCI-H23 lung, with OVCAR-4 ovarian, in the experiment with OVCAR-8 ovarian and in the experiment on RPMI-8226 leukemia was more than 100 µM in each case. The TGI with SF-295 CNS, with SK-MEL-5 melanoma and with SR leukemia was more than 100 µM throughout.
